This note sets out measurements from patent publication US20220241314A1, “COMPOSITIONS AND METHODS FOR TREATMENT OF HEPATITIS B VIRUS INFECTION” (priority 2019, published 2022).

The subject of the test is HBV cccDNA. Put plainly: Decay kinetics of established cccDNA and HBsAg secretion under treatment from 3 dpi to 20 dpi. The test is classed as cell-based, HBV (Genotype D). Conditions: HepG2-hNTCP, treatment from 3 dpi through 20 dpi. The method, then: (5A) HBV infection and treatment schedule. On day 0 HepG2-hNTCP cells were infected with HBV at moi of 1000 Geq/cell, incubated for 24 hr, and media was replaced. On day three the cells were harvested or treated with DMSO, ETV (500 nM), F7 (10 μM), poly-U/UC (100 ng/ml), or with ETC combination with F7 or poly-U/UC, PAMP. Cells were harvested at the indicated points over a 20-day time course. (5B), (5C) DNA was isolated by Hirt extract and subjected to Southern blot analysis using an HBV-specific DNA probe. Percentage values below each lane indicate the relative amount of cccDNA compared to day three control prior to each treatment. The positions of mass markers are indicated. (5D) cccDNA levels were measured by RT-qPCR. Relative cccDNA values to mitochondrial DNA (MT-CO3) are shown. Statistical significance was determined using Student's t test. Data are presented as mean standard deviation (SD), *P<0.01, **P<0.005, ***P<0.001 and ns=non-significant (E) Half-life of cccDNA from RT-qPCR analyses was estimated from the simultaneous fitting of three replicates under each treatment strategy. C(t) is the % values of cccDNA at time ‘t’ post-treatment, C(0) is the % values of cccDNA at the start of the treatment. (5F) HBsAg across the time course for each treatment series. Statistical significance as determined using Student's t test. Data are presented as mean standard deviations (SD), **P<0.005, and ns=non-significant.
ETV is a nucleoside analog that prevents the viral reverse transcription and replication of new synthesized HBV DNAs, thereby preventing the replenishment of cccDNA by de novo formation. ETV was applied to HBV-infected cultures at a 100-fold IC50 (Langley, D. R., et al. (2007). Inhibition of Hepatitis B Virus Polymerase by Entecavir. Journal of virology 81, 3992-4001) thereby allowing for the measurement of cccDNA half-life under conditions in which levels are sustained only from the initial cccDNA pool. Cells were then harvested over a treatment time course, and DNA extracts were analyzed by Southern blot and qPCR assay. […] J Hepatol 69, 1231-1241). […] Enhanced cccDNA decay kinetics by F7 treatment was also confirmed by RT-PCR analysis (FIG. 5D). […] Thus, F7 and poly-U/UC PAMP impart the therapeutic decay of established cccDNA.
Reverse transcription quantitative real time qPCR (RT-qPCR) analysis: Total cellular RNAs were extracted from cells using TRIZOL reagent and the manufacturers protocol (Invitrogen). cDNA was synthesized from the purified RNA by both random and oligo (dT) priming using iScript select cDNA synthesis kit (Biorad, Inc.). For HBV cccDNA expression analysis, total DNA was extracted using the DNeasy kit (QIAGEN). For selective cccDNA PCR analysis, isolated DNAs were treated with 10 Units of T5 exonuclease (NEB) for 30 min in 10 μl of reaction volume in 37° C., followed by heat-inactivation at 95° C. for 5 min and 4-fold dilution with Nuclease-free water. For extra-cellular HBV DNA quantification, an external HBV plasmid standard was used to program the PCR (Ko, C., et al. (2018), supra).

As for `C=C1[C@H](CO)[C@@H](O)C[C@@H]1n1cnc2c(=O)[nH]c(N)nc21` [ETV, Entecavir, reference compound], the “production and secretion of HBsAg” value is reported as “Neither ETV nor X RNA treatment of cells had any effect”. Further, the “cccDNA levels over treatment time course (Southern blot, qPCR)” value (ETV 500 nM, F7 10 μM, poly-U/UC 100 ng/ml) is “stably maintained cccDNA levels over the time course”.
